Assay results from the supplement of paper PMC10307832.

Key:
Assay in all cases: relative viability (nuclei count vs DMSO), 5 days (fraction); higher = more cells survive
NCI-H647 = tested on: NCI-H647
How it was run: (§1)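 Lung cancer cell lines, seeded in 1536-well plates, were treated the following day by pin tool with a single drug or with five library-drug doses (not always all listed) in √10 steps on top of a fixed anchor-drug dose. Cells were fixed and nuclei stained in one step after 5 days, and nuclei were counted. Relative viability is the nuclei count for treated wells divided by that for vehicle wells, reported as medians of duplicate plates.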

NCI-H1395 = tested on: NCI-H1395
How it was run: as §1

HCC-44 = tested on: HCC-44
How it was run: as §1

NCI-H2347 = tested on: NCI-H2347
How it was run: as §1

NCI-H2126 = tested on: NCI-H2126
How it was run: as §1

NCI-H596 = tested on: NCI-H596
How it was run: as §1

BEN = tested on: BEN
How it was run: as §1

NCI-H1993 = tested on: NCI-H1993
How it was run: as §1

NCI-H838 = tested on: NCI-H838
How it was run: as §1

NCI-H650 = tested on: NCI-H650
How it was run: as §1

NCI-H522 = tested on: NCI-H522
How it was run: as §1

LCLC-103H = tested on: LCLC-103H
How it was run: as §1

EMC-BAC-2 = tested on: EMC-BAC-2
How it was run: as §1

NCI-H727 = tested on: NCI-H727
How it was run: as §1

201T = tested on: 201T
How it was run: as §1

NCI-H23 = tested on: NCI-H23
How it was run: as §1

NCI-H2087 = tested on: NCI-H2087
How it was run: as §1

NCI-H3122 = tested on: NCI-H3122
How it was run: as §1

NCI-H441 = tested on: NCI-H441
How it was run: as §1

NCI-H2023 = tested on: NCI-H2023
How it was run: as §1

LOU-NH91 = tested on: LOU-NH91
How it was run: as §1

HARA = tested on: HARA
How it was run: as §1

`COc1cc2nccc(Oc3ccc(NC(=O)Nc4cc(C)on4)c(Cl)c3)c2cc1OC` [Tivozanib] + O=C(CCCCCCC(=O)Nc1ccccc1)NO [Vorinostat] (partner 1 µM) showed a relative viability (NCI-H647; first compound 0.005 µM) of 0.555, a relative viability (NCI-H647; first compound 0.01581 µM) of 0.654 and a relative viability (NCI-H647; first compound 0.05 µM) of 0.692. For the same molecule, the relative viability (NCI-H647; first compound 0.1581 µM) was 0.631, the relative viability (NCI-H647; first compound 0.5 µM) was 0.48 and the relative viability (NCI-H1395; first compound 0.005 µM) was 0.476. For the same molecule, the relative viability (NCI-H1395; first compound 0.01581 µM) was 0.747, the relative viability (NCI-H1395; first compound 0.05 µM) was 0.932 and the relative viability (NCI-H1395; first compound 0.1581 µM) was 0.58. The relative viability (NCI-H1395; first compound 0.5 µM) was 0.424, the relative viability (HCC-44; first compound 0.005 µM) was 1.03 and the relative viability (HCC-44; first compound 0.01581 µM) was 1.09. For the same molecule, the relative viability (HCC-44; first compound 0.05 µM) was 1.1, the relative viability (HCC-44; first compound 0.1581 µM) was 1.17 and the relative viability (HCC-44; first compound 0.5 µM) was 1.02. It also gave a relative viability (NCI-H2347; first compound 0.005 µM) of 0.612, a relative viability (NCI-H2347; first compound 0.01581 µM) of 0.577 and a relative viability (NCI-H2347; first compound 0.05 µM) of 0.61. It also gave a relative viability (NCI-H2347; first compound 0.1581 µM) of 0.797, a relative viability (NCI-H2347; first compound 0.5 µM) of 0.517 and a relative viability (NCI-H2126; first compound 0.005 µM) of 0.795. The relative viability (NCI-H2126; first compound 0.01581 µM) was 0.822, the relative viability (NCI-H2126; first compound 0.05 µM) was 0.82 and the relative viability (NCI-H2126; first compound 0.1581 µM) was 0.482. For the same molecule, the relative viability (NCI-H2126; first compound 0.5 µM) was 0.729, the relative viability (NCI-H596; first compound 0.005 µM) was 0.618 and the relative viability (NCI-H596; first compound 0.01581 µM) was 0.569. It also gave a relative viability (NCI-H596; first compound 0.05 µM) of 0.683, a relative viability (NCI-H596; first compound 0.5 µM) of 0.716 and a relative viability (BEN; first compound 0.005 µM) of 0.577. It also gave a relative viability (BEN; first compound 0.01581 µM) of 0.572, a relative viability (BEN; first compound 0.05 µM) of 0.586 and a relative viability (BEN; first compound 0.1581 µM) of 0.527. The relative viability (BEN; first compound 0.5 µM) was 0.522, the relative viability (NCI-H1993; first compound 0.005 µM) was 0.692 and the relative viability (NCI-H1993; first compound 0.01581 µM) was 0.579. It also gave a relative viability (NCI-H1993; first compound 0.05 µM) of 0.965, a relative viability (NCI-H1993; first compound 0.1581 µM) of 0.618 and a relative viability (NCI-H1993; first compound 0.5 µM) of 0.585. For the same molecule, the relative viability (NCI-H838; first compound 0.005 µM) was 0.75, the relative viability (NCI-H838; first compound 0.01581 µM) was 0.792 and the relative viability (NCI-H838; first compound 0.05 µM) was 0.802. It also gave a relative viability (NCI-H838; first compound 0.1581 µM) of 0.746, a relative viability (NCI-H838; first compound 0.5 µM) of 0.696 and a relative viability (NCI-H650; first compound 0.005 µM) of 0.348. For the same molecule, the relative viability (NCI-H650; first compound 0.01581 µM) was 0.379, the relative viability (NCI-H650; first compound 0.05 µM) was 0.414 and the relative viability (NCI-H650; first compound 0.1581 µM) was 0.29. The relative viability (NCI-H650; first compound 0.5 µM) was 0.296, the relative viability (NCI-H522; first compound 0.005 µM) was 1 and the relative viability (NCI-H522; first compound 0.01581 µM) was 1. For the same molecule, the relative viability (NCI-H522; first compound 0.05 µM) was 0.822, the relative viability (NCI-H522; first compound 0.1581 µM) was 0.721 and the relative viability (NCI-H522; first compound 0.5 µM) was 0.809. The relative viability (LCLC-103H; first compound 0.005 µM) was 0.668, the relative viability (LCLC-103H; first compound 0.01581 µM) was 0.809 and the relative viability (LCLC-103H; first compound 0.05 µM) was 0.86. It also gave a relative viability (LCLC-103H; first compound 0.1581 µM) of 0.824, a relative viability (LCLC-103H; first compound 0.5 µM) of 0.656 and a relative viability (EMC-BAC-2; first compound 0.005 µM) of 0.281. The relative viability (EMC-BAC-2; first compound 0.01581 µM) was 0.548, the relative viability (EMC-BAC-2; first compound 0.05 µM) was 0.5 and the relative viability (EMC-BAC-2; first compound 0.1581 µM) was 0.345. It also gave a relative viability (EMC-BAC-2; first compound 0.5 µM) of 0.201, a relative viability (NCI-H727; first compound 0.005 µM) of 1.15 and a relative viability (NCI-H727; first compound 0.01581 µM) of 1.26. The relative viability (NCI-H727; first compound 0.05 µM) was 1.3, the relative viability (NCI-H727; first compound 0.1581 µM) was 0.841 and the relative viability (NCI-H727; first compound 0.5 µM) was 1.22. It also gave a relative viability (201T; first compound 0.005 µM) of 0.983, a relative viability (201T; first compound 0.01581 µM) of 0.99 and a relative viability (201T; first compound 0.05 µM) of 1. For the same molecule, the relative viability (201T; first compound 0.1581 µM) was 0.899, the relative viability (201T; first compound 0.5 µM) was 0.974 and the relative viability (NCI-H23; first compound 0.005 µM) was 0.522. The relative viability (NCI-H23; first compound 0.01581 µM) was 0.484, the relative viability (NCI-H23; first compound 0.05 µM) was 0.6 and the relative viability (NCI-H23; first compound 0.5 µM) was 0.375. The relative viability (NCI-H2087; first compound 0.005 µM) was 0.917, the relative viability (NCI-H2087; first compound 0.01581 µM) was 0.685 and the relative viability (NCI-H2087; first compound 0.05 µM) was 0.663. It also gave a relative viability (NCI-H2087; first compound 0.1581 µM) of 0.698, a relative viability (NCI-H2087; first compound 0.5 µM) of 0.428 and a relative viability (NCI-H3122; first compound 0.005 µM) of 0.644. The relative viability (NCI-H3122; first compound 0.01581 µM) was 1.12, the relative viability (NCI-H3122; first compound 0.05 µM) was 0.97 and the relative viability (NCI-H3122; first compound 0.1581 µM) was 1.03. For the same molecule, the relative viability (NCI-H3122; first compound 0.5 µM) was 0.822, the relative viability (NCI-H441; first compound 0.005 µM) was 0.765 and the relative viability (NCI-H441; first compound 0.01581 µM) was 0.771. It also gave a relative viability (NCI-H441; first compound 0.05 µM) of 0.743, a relative viability (NCI-H441; first compound 0.1581 µM) of 0.801 and a relative viability (NCI-H441; first compound 0.5 µM) of 0.745. For the same molecule, the relative viability (NCI-H2023; first compound 0.005 µM) was 0.488, the relative viability (NCI-H2023; first compound 0.01581 µM) was 0.694 and the relative viability (NCI-H2023; first compound 0.05 µM) was 0.703. It also gave a relative viability (NCI-H2023; first compound 0.1581 µM) of 0.48, a relative viability (NCI-H2023; first compound 0.5 µM) of 0.441 and a relative viability (LOU-NH91; first compound 0.005 µM) of 0.754. It also gave a relative viability (LOU-NH91; first compound 0.01581 µM) of 0.952, a relative viability (LOU-NH91; first compound 0.05 µM) of 0.908 and a relative viability (LOU-NH91; first compound 0.1581 µM) of 0.782. The relative viability (LOU-NH91; first compound 0.5 µM) was 0.761, the relative viability (HARA; first compound 0.005 µM) was 0.422 and the relative viability (HARA; first compound 0.01581 µM) was 0.456. The relative viability (HARA; first compound 0.05 µM) was 0.594, the relative viability (HARA; first compound 0.1581 µM) was 0.563 and the relative viability (HARA; first compound 0.5 µM) was 0.507.
